Experimental data as given in ChEMBL document CHEMBL5230136, “A review: Biologically active 3,4-heterocycle-fused coumarins” (Eur J Med Chem, 2021).
≈ marks a conversion by molar mass, not a printed value.

Key:
[1] = tested on: Staphylococcus epidermidis; assay: Antibacterial activity against Staphylococcus epidermidis assessed as reduction in bacterial growth; type: functional
[2] = tested on: Xanthomonas citri pv. malvacearum; assay: Antibacterial activity against Xanthomonas citri pv. malvacearum assessed as reduction in bacterial growth; type: functional; set-up: concentration or dose not given beside the values
Fusarium verticillioides = assay: Antifungal activity against Fusarium verticillioides assessed as reduction in fungal growth; type: functional; set-up: concentration or dose not given beside the values
Rhizoctonia solani [3] = assay: Antifungal activity against Rhizoctonia solani assessed as reduction in fungal growth; type: functional; set-up: concentration or dose not given beside the values
Erysiphe necator = assay: Antifungal activity against powdery mildew Erysiphe necator assessed as reduction in fungal growth; type: functional; set-up: concentration or dose not given beside the values
Phytophthora = assay: Antimicrobial activity against Phytophthora assessed as reduction in microbial growth; type: functional; set-up: concentration or dose not given beside the values
Botrytis cinerea [4] = assay: Antifungal activity against gray mold Botrytis cinerea assessed as reduction in fungal growth; type: functional; set-up: concentration or dose not given beside the values
Bacillus cereus [5] = assay: Antibacterial activity against Bacillus cereus assessed as zone of inhibition at 20 mg/ml; type: functional; details: read-out: IZ
Staphylococcus aureus [6] = assay: Antibacterial activity against Staphylococcus aureus assessed as zone of inhibition; type: functional
Pseudomonas aeruginosa = assay: Antibacterial activity against Pseudomonas aeruginosa assessed as zone of inhibition; type: functional
Escherichia coli [7] = assay: Antibacterial activity against Escherichia coli assessed as zone of inhibition; type: functional
Klebsiella aerogenes = assay: Antibacterial activity against Enterobacter aerogenes assessed as zone of inhibition; type: functional
Aspergillus niger = assay: Antifungal activity against Aspergillus niger assessed as zone of inhibition; type: functional
Penicillium italicum = assay: Antifungal activity against Penicillium italicum assessed as zone of inhibition; type: functional
Fusarium oxysporum = assay: Antifungal activity against Fusarium oxysporum assessed as zone of inhibition; type: functional
Candida albicans = assay: […] activity against Candida albicans assessed as zone of inhibition at 20 mg/ml; type: functional; details: read-out: IZ
H69AR = assay: Cytotoxicity against human NCI-H69AR cells assessed as reduction in cell viability by SRB assay; type: functional, cell-based
HuCC-A1 = assay: Antiproliferative activity against human HuCC-A1 cells assessed as reduction in cell proliferation; type: functional, cell-based
Escherichia coli [8] = assay: Antibacterial activity against Escherichia coli assessed as bacterial growth inhibition by broth dilution method; type: functional
[9] = biological target: Dual specificity tyrosine-phosphorylation-regulated kinase 1A (Homo sapiens, UniProt Q13627); assay: Inhibition of DYRK1A (unknown origin)
[10] = Antiproliferative activity against human U87 cells assessed as reduction in cell viability by MTT assay; type: functional, cell-based, U-87MG ATCC; details: U-87 MG
Botrytis cinerea [11] = assay: Antifungal activity against Botrytis cinerea; type: functional, organism-based
Colletotrichum camelliae = assay: Antifungal activity against Colletotrichum camelliae; type: functional, organism-based
Rhizoctonia solani [12] = assay: Antifungal activity against Rhizoctonia solani at 150 uM; type: functional, organism-based
Bacillus subtilis = assay: Antibacterial activity against Bacillus subtilis assessed as zone of inhibition; type: functional
Bacillus cereus [13] = assay: Antibacterial activity against Bacillus cereus assessed as zone of inhibition; type: functional
Staphylococcus aureus [14] = assay: Antibacterial activity against Staphylococcus aureus ATCC 29213 assessed as reduction in bacterial growth; type: functional
Ehrlich = assay: cells; details: Mus musculus
Description: Anticancer activity against mouse EAC cells assessed as reduction in cell viability

Serratia marcescens [15] = assay: Antibacterial activity against Serratia marcescens assessed as zone of inhibition at 20 mg/ml; type: functional; details: read-out: IZ
Serratia marcescens [16] = assay: Antibacterial activity against Serratia marcescens assessed as zone of inhibition; type: functional
Proteus mirabilis = assay: Antibacterial activity against Proteus mirabilis assessed as zone of inhibition; type: functional
Aspergillus ochraceus = assay: Antifungal activity against Aspergillus ochraceus assessed as zone of inhibition; type: functional
Penicillium chrysogenum = assay: Antifungal activity against Penicillium chrysogenum assessed as zone of inhibition; type: functional
[17] = Antioxidant activity assessed as DPPH radical scavenging activity; type: functional
[18] = biological target: Dopamine receptors; D2 & D4 (Homo sapiens, UniProt P14416+P21917); assay: Binding affinity to human D2/D4 receptor assessed as inhibition constant; type: protein assay
HCT-116/VM46 = assay: cells; details: Homo sapiens

## N=c1c2c(=O)oc3ccccc3c2ccn1-c1ccccn1
[1]
  MIC: 50 µg/mL

## CC(=O)N1C(c2ccccc2)Cc2c(c(=O)oc3cc(C)ccc23)C1c1ccccc1 (stereo unspecified)
[2]
  Activity: 18%
Fusarium verticillioides
  Activity: 10%
Rhizoctonia solani [3]
  Activity: 0%
Erysiphe necator
  Activity: 52%
Phytophthora
  Activity: 83%
Botrytis cinerea [4]
  Activity: 11%

## NC1NC=NC2=C1C(c1ccc(Br)cc1)c1c(c3ccccc3oc1=O)O2 (stereo unspecified)
Bacillus cereus [5]
  zone of inhibition at 20000 µg/mL: 22 mm
Staphylococcus aureus [6]
  inhibition zone (IZ): 29 mm
Pseudomonas aeruginosa
  inhibition zone (IZ): 18 mm
Escherichia coli [7]
  inhibition zone (IZ): 21 mm
Klebsiella aerogenes
  inhibition zone (IZ): 20 mm
Aspergillus niger
  inhibition zone (IZ): 14 mm
Penicillium italicum
  inhibition zone (IZ): 16 mm
Fusarium oxysporum
  inhibition zone (IZ): 18 mm

## CCOC(=O)c1nnc2c3c(=O)oc4ccccc4c3nn2c1N
Candida albicans
  zone of inhibition at 20000 µg/mL: 10 mm

## COc1cc(-c2c3n(c4c(=O)oc5cc(O)c(OC)cc5c24)CCc2c-3cc(OC)c(OC)c2O)ccc1O
H69AR
  IC50: 4300 nM
HuCC-A1
  IC50: 3400 nM

## Nc1cc(=O)[nH]c2c3c(=O)oc4ccccc4c3nn12
Candida albicans
  zone of inhibition at 20000 µg/mL: 10 mm

## GENTAMICIN
Escherichia coli [8]
  MIC: 5 µg/mL

## O=c1oc2cc(O)ccc2c2c1[nH]c1ccc(O)cc12
[9]
  IC50: 0.3 nM

## N#CC1=C(N)Oc2c(c(=O)oc3ccccc23)C12C(=O)N(CCCCBr)c1ccccc12 (stereo unspecified)
[10]
  IC50: 78000 nM

## O=c1oc2c(ccc3ccccc32)c2c1C(c1ccccc1)NC(c1ccccc1)C2 (stereo unspecified)
[2]
  Activity: 9%
Fusarium verticillioides
  Activity: 18%
Rhizoctonia solani [3]
  Activity: 30%
Erysiphe necator
  Activity: 68%
Phytophthora
  Activity: 83%
Botrytis cinerea [4]
  Activity: 32%

## Cc1ccc2c3c(c(=O)oc2c1)C(c1ccccc1)NC(c1ccccc1)C3 (stereo unspecified)
[2]
  Activity: 0%
Fusarium verticillioides
  Activity: 20%
Rhizoctonia solani [3]
  Activity: 13%
Erysiphe necator
  Activity: 38%
Phytophthora
  Activity: 83%
Botrytis cinerea [4]
  Activity: 0%

## COc1ccc2ccc(=O)oc2c1CC=C(C)C [OSTHOLE]
Botrytis cinerea [11]
  EC50: 6.45 µg/mL (≈ 26.4 µM)
Colletotrichum camelliae
  EC50: 16.8 µg/mL (≈ 68.9 µM)
Rhizoctonia solani [12]
  EC50: 6.88 µg/mL (≈ 28.2 µM)

## Cc1coc2c1c(=O)oc1ccccc12
Colletotrichum camelliae
  EC50: 8.74 µg/mL (≈ 43.7 µM)

## C=CCOc1ccc2c(c1)oc(=O)c1c(C)c(C)oc12
Botrytis cinerea [11]
  EC50: 1.72 µg/mL (≈ 6.36 µM)

## N#CC1=C(N)Oc2c(c(=O)oc3ccccc23)C1c1ccc(Br)cc1 (stereo unspecified)
Staphylococcus aureus [6]
  inhibition zone (IZ): 28 mm
Bacillus subtilis
  inhibition zone (IZ): 11 mm
Bacillus cereus [13]
  inhibition zone (IZ): 19 mm
Pseudomonas aeruginosa
  inhibition zone (IZ): 10 mm
Escherichia coli [7]
  inhibition zone (IZ): 20 mm
Klebsiella aerogenes
  inhibition zone (IZ): 10 mm
Aspergillus niger
  inhibition zone (IZ): 12 mm
Penicillium italicum
  inhibition zone (IZ): 11 mm
Fusarium oxysporum
  inhibition zone (IZ): 20 mm

## CC1(C)S[C@@H]2[C@H](NC(=O)[C@H](N)c3ccc(O)cc3)C(=O)N2[C@H]1C(=O)O [AMOXICILLIN]
Staphylococcus aureus [6]
  inhibition zone (IZ): 29 mm
Bacillus subtilis
  inhibition zone (IZ): 12 mm
Bacillus cereus [13]
  inhibition zone (IZ): 20 mm
Pseudomonas aeruginosa
  inhibition zone (IZ): 11 mm
Escherichia coli [7]
  inhibition zone (IZ): 36 mm
Klebsiella aerogenes
  inhibition zone (IZ): 10 mm

## O=c1oc2ccc3ccccc3c2cc1-c1ccc2c(=O)oc3ccc(Cl)cc3c2n1
Staphylococcus aureus [14]
  MIC: 62.5 µM (≈ 26.6 µg/mL)

## CCc1cccc(-n2c(N)c(C#N)c3c(c(=O)oc4ccc5ccccc5c43)c2=O)c1
Ehrlich
  IC50: 246000 nM

## O=c1oc2ccccc2c2nc(/C=C/c3ccccc3)cc(-c3ccccc3)c12
Ehrlich
  IC50: 120 nM

## CCOC(=O)c1nc2c3c(ncn2n1)Oc1c(c(=O)oc2ccccc12)C3c1ccc(Cl)cc1 (stereo unspecified)
Serratia marcescens [15]
  zone of inhibition at 20000 µg/mL: 25 mm
Staphylococcus aureus [6]
  inhibition zone (IZ): 23 mm
Bacillus cereus [13]
  inhibition zone (IZ): 22 mm
Serratia marcescens [16]
  inhibition zone (IZ): 25 mm
Proteus mirabilis
  inhibition zone (IZ): 23 mm
Aspergillus niger
  inhibition zone (IZ): 14 mm
Aspergillus ochraceus
  inhibition zone (IZ): 19 mm
Penicillium chrysogenum
  inhibition zone (IZ): 20 mm

## O=c1oc2ccc(O)cc2c2c1[nH]c1ccc(O)cc12
[9]
  IC50: 67 nM

## CN1CCN(Cc2[se]c3c(=O)oc4ccccc4c3c2Br)CC1
[17]
  IC50: 87000 nM

## COc1cccc2c1OC(=O)C1C(C)=Nc3[nH]n(-c4cc(Cl)ccc4Cl)c(=O)c3C21 (stereo unspecified)
[1]
  MIC: 25 µM

## COc1ccc2c3c(c(=O)oc2c1)CN(CCc1ccccc1)CC3
[18]
  Ki: 734 nM

## Cc1ccc2c3c(c(=O)oc2c1)CN(Cc1ccc(F)cc1)CC3
[18]
  Ki: 773 nM

## CC[C@]1(O)C[C@@H]2CN(CCc3c([nH]c4ccccc34)[C@@](C(=O)OC)(c3cc4c(cc3OC)N(C)[C@H]3[C@@](O)(C(=O)OC)[C@H](OC(C)=O)[C@]5(CC)C=CCN6CC[C@]43[C@@H]65)C2)C1 [VINBLASTINE]
HCT-116/VM46
  IC50: 2 nM
